Results from article PMC5041982, “Small-molecule inhibition of STAT3 in radioresistant head and neck squamous cell carcinoma” (Oncotarget, 2016).
Read-outs that look alike come from different tables or passages of the source.

Legend:
[1] = system: pSTAT5; assay: Phosphoflow, G-CSF-induced pSTAT5 in Kasumi-1 cells; assay type: cell-based; details: mean, n ≥ 2, read-out: Ligand Induced Phosphorylation (Phosphoflow) pSTAT5 (G-CSF) IC50
Experimental: (§1) Phosphoflow analysis was done as described in Xu et al. Briefly, Kasumi-1 cells, were serum-starved, pre-treated with compound or DMSO (1 hour, RT) and then stimulated with 20 μl of GCSF (10 ng/ml) for 15 minutes at 37°C. The cells were then permeabilized and stained with Alexa647-pSTAT3, Alexa488-pSTAT5 and PE-pSTAT1 antibodies and analyzed using the BD LSR2. FCS files were exported and uploaded to Cytobank for determination of phosphoproteins as earlier. Gating was done on live, single cells and then gates selected for positive ligand-activated pSTAT3 and pSTAT1. IC50 values were calculated using the GraphPad Prism.

[2] = system: UM-SCC-17B cells; assay: Anchorage dependent growth (MTT); assay type: cell-based; details: Homo sapiens, 48 hrs
Experimental: GAPDH-normalized pSTAT3 or pSTAT1 values were divided by that for untreated cells and expressed in percentage. These values were plotted as a function of Log [M] compound, and IC50 values calculated using GraphPad. […] Viable cells quantitated using MTT. Relative % viability was measured by (viability after any treatment ÷ viability of untreated cells × 100) and plotted as a function of Log [M] […] C. […] Representative curves are shown.
Cells were cultured in triplicates in complete DMEM ± drug, in ultra-low attachment 96 well plates for 72 hrs or cell-culture treated plates for 48 hrs and viable cells were quantitated using MTT. Optical density (OD) was measured at 590 nm using a 96-well multi-scanner (EL-800 universal microplate reader, BioTek Inc, VT, USA). Relative % viability (viability after any treatment ÷ viability of untreated cells × 100) was plotted along Y-axis. At least 2 replicates experiments were performed and were used for IC50 calculation using GraphPad software.

[3] = system: MB-MDA-468; details: MB-MDA-468 in vitro; read-out: Apoptosis EC50; cited from earlier work
[4] = target: pSTAT3 (Homo sapiens, UniProt P40763); assay: pSTAT3 levels in UM-SCC-17B tumor xenografts (immunoblot); details: UM-SCC-17B xenografts, C188 50 mg/kg/day
pSTAT3, sequence (P40763 whole entry): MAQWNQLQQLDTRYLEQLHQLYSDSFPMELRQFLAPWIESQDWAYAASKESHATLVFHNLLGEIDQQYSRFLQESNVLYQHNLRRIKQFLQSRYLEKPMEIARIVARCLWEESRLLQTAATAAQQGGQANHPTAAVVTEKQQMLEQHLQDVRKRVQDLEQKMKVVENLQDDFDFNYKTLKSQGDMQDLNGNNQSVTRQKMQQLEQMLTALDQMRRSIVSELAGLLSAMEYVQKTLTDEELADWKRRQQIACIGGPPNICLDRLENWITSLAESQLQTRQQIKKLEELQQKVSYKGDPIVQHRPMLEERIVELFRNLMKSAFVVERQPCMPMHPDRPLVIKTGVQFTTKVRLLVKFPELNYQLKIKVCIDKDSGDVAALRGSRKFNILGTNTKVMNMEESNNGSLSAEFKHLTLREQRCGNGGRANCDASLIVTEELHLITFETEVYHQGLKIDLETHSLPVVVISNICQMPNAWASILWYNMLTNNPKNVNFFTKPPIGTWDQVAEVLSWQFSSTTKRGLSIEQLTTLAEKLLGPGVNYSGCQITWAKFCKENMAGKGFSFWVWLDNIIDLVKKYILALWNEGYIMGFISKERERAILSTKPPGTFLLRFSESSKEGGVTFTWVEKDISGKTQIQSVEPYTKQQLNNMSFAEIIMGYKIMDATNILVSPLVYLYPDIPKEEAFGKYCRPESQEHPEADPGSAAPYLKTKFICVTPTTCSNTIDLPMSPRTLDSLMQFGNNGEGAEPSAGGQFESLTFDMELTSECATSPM
Experimental: Tumor tissue was minced, homogenized and first), 50% PEG-400 (added second), 40% Saline (added proteins extracted using high-salt buffer, as described last) then vortexed and sonicated at concentration (10 mg/
C57BL/6 mice were provided in membrane (Millipore, Waltham, MA) and immunoblotted. triplicate, a single dose by body weight via either intra-Membranes were probed with antibody against peritoneal (IP) or oral (PO) route at 10 mg/kg at a volume STAT1 pY701 or STAT3 pY705 total STAT1 or STAT3 of 10 mL/kg and plasma samples collected as shown (Transduction labs, Lexington, KY) and β–actin (Abcam, in the study table below. At the indicated times, 3 mice Cambridge, MA). Membranes were stripped between per time point were euthanized per dose route and then

[5] = Maximum tolerated dose in mice; details: mouse, in vivo
[6] = target: T1, pSTAT1 (Tyr-701) (Homo sapiens, UniProt P42224); assay: Luminex bead-based assay, G-CSF-induced pSTAT1 in Kasumi-1 cells; assay type: cell-based; details: Figure 2D, Kasumi-1, G-CSF; read-out: Luminex pSTAT1 (Tyr-701) IC50, representative experiment
T1 construct: endogenous in cells; host or cells: Kasumi-1
T1 sequence (P42224 1-750): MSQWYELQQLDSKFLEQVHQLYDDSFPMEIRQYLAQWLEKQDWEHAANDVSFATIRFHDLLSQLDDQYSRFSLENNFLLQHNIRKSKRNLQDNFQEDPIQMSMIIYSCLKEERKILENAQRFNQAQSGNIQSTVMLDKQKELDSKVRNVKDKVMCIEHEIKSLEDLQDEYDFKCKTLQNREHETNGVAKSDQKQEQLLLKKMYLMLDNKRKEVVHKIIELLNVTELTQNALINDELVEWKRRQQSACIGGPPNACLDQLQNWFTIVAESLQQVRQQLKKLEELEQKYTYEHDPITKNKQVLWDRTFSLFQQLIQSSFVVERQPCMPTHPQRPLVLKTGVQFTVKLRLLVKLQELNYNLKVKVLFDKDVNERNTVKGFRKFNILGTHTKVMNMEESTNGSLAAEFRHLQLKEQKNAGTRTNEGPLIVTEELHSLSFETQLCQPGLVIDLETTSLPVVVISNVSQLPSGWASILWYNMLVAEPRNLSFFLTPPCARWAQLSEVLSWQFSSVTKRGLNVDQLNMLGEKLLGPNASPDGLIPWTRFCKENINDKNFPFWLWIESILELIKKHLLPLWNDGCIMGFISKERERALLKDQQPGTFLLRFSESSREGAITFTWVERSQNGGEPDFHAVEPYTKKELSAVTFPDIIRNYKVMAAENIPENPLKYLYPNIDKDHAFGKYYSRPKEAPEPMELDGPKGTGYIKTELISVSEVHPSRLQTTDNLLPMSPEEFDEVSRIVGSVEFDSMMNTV
Experimental: The equilibrium binding levels obtained ± compound were normalized (resonance obtained in the presence of compound ÷ the resonance obtained in the absence of compound × 100) and plotted against Log [nM] […] B. Inhibition of ligand-stimulated STAT phosphorylation, measured by phosphoflow. Serum-starved (1 hour) Kasumi-1 cells, pre-incubated with compound/DMSO (1 hour), were treated with G-CSF (10 ng/ml, 15 min, left two panels) or IFN-γ (10ng/ml, 15 min, right panel). Cells were permeabilized and stained with Alexa647-pSTAT3, and PE-pSTAT1 antibodies and analyzed on BD LSR2. FCS files were uploaded to Cytobank for pSTAT3 and pSTAT1 quantitation. Histograms depicting pSTAT3 and pSTAT1 levels are shown. C. Mean fluorescence (pSTAT3/1) levels were plotted as function the Log [M] compound, and IC50 calculated using GraphPad. […] D. Inhibition of ligand-stimulated STAT phosphorylation, measured by Luminex. Serum-starved (1 hour) Kasumi-1 cells, pre-incubated with compound/DMSO (0/0.1/0.3/1/3/10/100 μM, 1 hour), were treated with G-CSF (10 ng/ml, 15′). Total protein extracts of cells were assayed for pSTAT3, pSTAT1, and GAPDH levels by Luminex. […] These values were plotted as a function of Log [M] compound, and IC50 values calculated using GraphPad. […]
for analysis as described below. were determined by plotting % maximum response as a 3-D pharmacophore generation function of log concentration of compound and fitting the Each molecular chemical feature, including experimental points to a competitive binding model using hydrogen bond donor, hydrogen bond acceptor, positive a four parameter logistic equation: R = Rhigh − (Rhigh − R low)/ (1 + conc/A1)^A2, where R = percent response at and negative ionizable group, and hydrophobic region, inhibitor concentration, R = percent response with no was generated using the LigandScout application compound, R= percent response at highest compound high framework and projected into 3-D space. concentration, A2 = fitting parameter (slope) and A1 = low Feature-pairing IC50 (BIAevaluation Software version 4.1). […]

[7] = target: T1, pSTAT1 (Tyr-701); assay: Phosphoflow, IFN-γ-induced pSTAT1 in Kasumi-1 cells; assay type: cell-based; details: Figure 2C, Kasumi-1; read-out: Phosphoflow pSTAT1 (Tyr-701) IC50, representative experiment
Experimental: The equilibrium binding levels obtained ± compound were normalized (resonance obtained in the presence of compound ÷ the resonance obtained in the absence of compound × 100) and plotted against Log [nM] […] B. Inhibition of ligand-stimulated STAT phosphorylation, measured by phosphoflow. Serum-starved (1 hour) Kasumi-1 cells, pre-incubated with compound/DMSO (1 hour), were treated with G-CSF (10 ng/ml, 15 min, left two panels) or IFN-γ (10ng/ml, 15 min, right panel). Cells were permeabilized and stained with Alexa647-pSTAT3, and PE-pSTAT1 antibodies and analyzed on BD LSR2. FCS files were uploaded to Cytobank for pSTAT3 and pSTAT1 quantitation. Histograms depicting pSTAT3 and pSTAT1 levels are shown. C. Mean fluorescence (pSTAT3/1) levels were plotted as function the Log [M] compound, and IC50 calculated using GraphPad. […] D. Inhibition of ligand-stimulated STAT phosphorylation, measured by Luminex. Serum-starved (1 hour) Kasumi-1 cells, pre-incubated with compound/DMSO (0/0.1/0.3/1/3/10/100 μM, 1 hour), were treated with G-CSF (10 ng/ml, 15′). Total protein extracts of cells were assayed for pSTAT3, pSTAT1, and GAPDH levels by Luminex. GAPDH-normalized pSTAT3 or pSTAT1 values were divided by this ratio for untreated cells and expressed in percentage. These values were plotted as a function of Log [M] compound, and IC50 values calculated using GraphPad.
as §1

[8] = system: UM-SCC-17B xenografts; assay: UM-SCC-17B tumor xenograft growth in nude mice; assay type: in vivo; details: IP 5 times a week, 50 mg/kg/day
Experimental: (§2) Tumor volumes were measured twice weekly.
as §2

With `O=C(O)CSc1cc(NS(=O)(=O)c2ccc(C(=O)O)cc2)c2ccccc2c1O` [Compound C188] the IC50 [1] was 40 µM, the IC50 ([2]; mean, read-out: Anchorage dependent growth (MTT) IC50) was 6.3 ± 0.8 µM and the IC50 ([2]; Figure 4B, read-out: Anchorage Dependent growth IC50, representative experiment) was 5.7 µM. The EC50 [3] was 700 nM, the “Levels of pSTAT3 in tumors” value [4] was “not reduced significantly” and the MTD at 14 days [5] was 100 mg/kg/day. The IC50 [6] was 21.9 µM, the IC50 [7] was 23.4 µM and the “Growth of established UM-SCC-17B xenograft tumors” value [8] was “continued to grow”.
